Measured values published in ChEMBL document CHEMBL1143964, “Novel pyrazolo[1,5-a]pyrimidines as c-Src kinase inhibitors that reduce IKr channel blockade” (Bioorg Med Chem, 2008).
One block for each compound: values may come before it.

Legend:
[1] = biological target: T1, IKr channel (Oryctolagus cuniculus, UniProt Q28705); assay: Inhibition of Ikr channel in rabbit ventricular myocytes at 30 uM
[2] = biological target: T2, Proto-oncogene tyrosine-protein kinase Src (Homo sapiens, UniProt P12931); assay: Inhibition of human cSrc
[3] = biological target: T1, IKr channel; assay: Inhibition of Ikr channel in rabbit ventricular myocytes at 10 uM; assay type: cell-based, Ventricular myocyte
[4] = biological target: T2, Proto-oncogene tyrosine-protein kinase Src; assay: Inhibition of human cSrc in COS7 cells by ELISA; assay type: cell-based, COS-7
[5] = Ratio of drug level in brain to plasma in Sprague-Dawley rat at 3 mg/kg, iv after 1 hr; assay type: ADME, organism-based; set-up: dose 3 mg/kg, route intravenous; settings: read-out: BPR
[6] = Drug level in Sprague-Dawley rat plasma at 3 mg/kg, iv after 1 hr; assay type: ADME, organism-based; set-up: dose 3 mg/kg, route intravenous
[7] = Drug level in Sprague-Dawley rat brain at 3 mg/kg, iv after 1 hr; assay type: ADME, organism-based; set-up: dose 3 mg/kg, route intravenous; settings: read-out: Drug uptake
[8] = Clearance in Sprague-Dawley rat middle cerebral artery occlusion model at 3 mg/kg, iv; assay type: ADME, organism-based; set-up: dose 3 mg/kg, route intravenous; settings: in vivo
[9] = biological target: Epidermal growth factor receptor (Homo sapiens, UniProt P00533)
[10] = biological target: Tyrosine-protein kinase Lck (Homo sapiens, UniProt P06239)
[11] = Half life in Sprague-Dawley rat middle cerebral artery occlusion model at 3 mg/kg, iv; assay type: ADME, organism-based; set-up: dose 3 mg/kg, route intravenous; settings: in vivo
[12] = biological target: T3, Tyrosine-protein kinase ZAP-70 (Homo sapiens, UniProt P43403); assay: Inhibition of ZAP
T3 sequence (P43403 whole entry): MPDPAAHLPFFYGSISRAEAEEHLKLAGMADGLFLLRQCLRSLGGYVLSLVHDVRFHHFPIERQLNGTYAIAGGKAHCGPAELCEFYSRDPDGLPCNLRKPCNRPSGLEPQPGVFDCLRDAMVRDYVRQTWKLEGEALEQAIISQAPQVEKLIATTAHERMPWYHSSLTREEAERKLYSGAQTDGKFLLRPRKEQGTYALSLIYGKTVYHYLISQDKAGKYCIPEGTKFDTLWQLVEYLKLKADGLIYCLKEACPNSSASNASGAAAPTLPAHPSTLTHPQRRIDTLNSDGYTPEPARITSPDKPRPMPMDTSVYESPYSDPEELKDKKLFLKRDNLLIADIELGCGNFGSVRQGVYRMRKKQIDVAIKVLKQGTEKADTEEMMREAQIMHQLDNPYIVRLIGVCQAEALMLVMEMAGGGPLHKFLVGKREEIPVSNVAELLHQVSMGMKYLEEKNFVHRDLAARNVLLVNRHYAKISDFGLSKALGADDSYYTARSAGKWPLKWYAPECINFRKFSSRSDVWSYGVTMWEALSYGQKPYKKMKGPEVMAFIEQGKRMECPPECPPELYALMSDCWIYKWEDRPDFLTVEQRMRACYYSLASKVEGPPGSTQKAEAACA

[13] = Volume of distribution at steady state in Sprague-Dawley rat middle cerebral artery occlusion model at 3 mg/kg, iv; assay type: ADME, organism-based; set-up: dose 3 mg/kg, route intravenous; settings: in vivo, read-out: Vdss
[14] = biological target: Vascular endothelial growth factor receptor 2 (Homo sapiens, UniProt P35968); assay: Inhibition of KDR
[15] = biological target: Tyrosine-protein kinase SYK (Homo sapiens, UniProt P43405); assay: Inhibition of Syk
[16] = biological target: Protein kinase C beta type (Homo sapiens, UniProt P05771); assay: Inhibition of PKCbeta
[17] = AUC (0 to infinity) in Sprague-Dawley rat middle cerebral artery occlusion model at 3 mg/kg, iv; assay type: ADME, organism-based; set-up: time infinity, dose 3 mg/kg, route intravenous; settings: in vivo

T2 sequence (P12931 2-536 limits assumed): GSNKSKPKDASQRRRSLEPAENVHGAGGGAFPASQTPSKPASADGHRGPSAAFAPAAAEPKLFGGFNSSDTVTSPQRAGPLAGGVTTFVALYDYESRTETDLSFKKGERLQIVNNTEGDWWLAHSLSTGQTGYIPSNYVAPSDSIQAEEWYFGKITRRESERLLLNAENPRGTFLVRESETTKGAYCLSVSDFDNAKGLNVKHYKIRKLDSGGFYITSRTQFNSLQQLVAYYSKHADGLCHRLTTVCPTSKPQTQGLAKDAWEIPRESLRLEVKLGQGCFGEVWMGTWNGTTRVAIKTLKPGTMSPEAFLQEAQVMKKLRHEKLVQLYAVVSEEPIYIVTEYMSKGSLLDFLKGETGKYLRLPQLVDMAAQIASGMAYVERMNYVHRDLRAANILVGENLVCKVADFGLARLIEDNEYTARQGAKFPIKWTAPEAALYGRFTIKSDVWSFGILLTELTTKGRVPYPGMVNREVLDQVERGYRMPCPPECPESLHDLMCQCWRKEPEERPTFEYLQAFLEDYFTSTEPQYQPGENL
T1 sequence (Q28705 whole entry): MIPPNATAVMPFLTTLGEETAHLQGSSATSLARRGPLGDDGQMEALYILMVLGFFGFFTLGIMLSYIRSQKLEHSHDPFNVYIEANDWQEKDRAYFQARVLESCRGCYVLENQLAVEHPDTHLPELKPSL
Sequence of Vascular endothelial growth factor receptor 2 (P35968 whole entry): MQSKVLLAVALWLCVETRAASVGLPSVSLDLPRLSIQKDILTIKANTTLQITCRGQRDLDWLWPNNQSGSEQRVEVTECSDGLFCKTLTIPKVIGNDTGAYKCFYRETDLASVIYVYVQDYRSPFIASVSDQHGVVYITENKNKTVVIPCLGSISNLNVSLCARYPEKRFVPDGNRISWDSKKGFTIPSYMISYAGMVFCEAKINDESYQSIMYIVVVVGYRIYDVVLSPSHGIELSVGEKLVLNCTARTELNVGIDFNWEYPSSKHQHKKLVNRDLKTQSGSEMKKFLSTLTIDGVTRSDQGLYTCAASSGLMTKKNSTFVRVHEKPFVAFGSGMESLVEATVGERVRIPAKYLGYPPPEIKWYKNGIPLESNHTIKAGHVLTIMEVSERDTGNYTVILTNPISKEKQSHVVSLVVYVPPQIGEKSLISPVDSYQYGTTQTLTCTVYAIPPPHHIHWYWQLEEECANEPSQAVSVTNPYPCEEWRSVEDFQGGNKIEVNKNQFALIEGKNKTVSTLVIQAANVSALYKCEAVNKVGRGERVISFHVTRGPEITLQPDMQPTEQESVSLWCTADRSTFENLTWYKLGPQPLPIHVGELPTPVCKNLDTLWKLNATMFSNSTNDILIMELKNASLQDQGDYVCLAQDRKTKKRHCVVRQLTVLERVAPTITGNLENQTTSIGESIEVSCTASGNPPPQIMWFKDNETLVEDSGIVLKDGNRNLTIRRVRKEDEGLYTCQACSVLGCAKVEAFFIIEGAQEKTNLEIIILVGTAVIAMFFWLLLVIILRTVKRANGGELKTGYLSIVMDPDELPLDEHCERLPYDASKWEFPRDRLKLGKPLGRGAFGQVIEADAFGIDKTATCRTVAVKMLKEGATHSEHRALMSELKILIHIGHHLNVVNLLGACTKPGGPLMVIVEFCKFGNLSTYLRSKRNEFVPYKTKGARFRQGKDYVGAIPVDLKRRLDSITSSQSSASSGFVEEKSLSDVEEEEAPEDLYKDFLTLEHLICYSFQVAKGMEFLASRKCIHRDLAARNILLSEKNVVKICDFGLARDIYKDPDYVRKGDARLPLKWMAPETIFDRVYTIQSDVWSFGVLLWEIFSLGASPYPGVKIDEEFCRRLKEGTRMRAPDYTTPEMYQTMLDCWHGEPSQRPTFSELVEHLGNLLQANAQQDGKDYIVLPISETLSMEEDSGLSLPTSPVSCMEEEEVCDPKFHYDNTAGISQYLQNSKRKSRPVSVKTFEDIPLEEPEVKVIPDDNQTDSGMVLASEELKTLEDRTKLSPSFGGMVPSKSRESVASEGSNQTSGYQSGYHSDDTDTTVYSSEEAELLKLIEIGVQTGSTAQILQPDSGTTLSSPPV
Sequence of Protein kinase C beta type (P05771 whole entry): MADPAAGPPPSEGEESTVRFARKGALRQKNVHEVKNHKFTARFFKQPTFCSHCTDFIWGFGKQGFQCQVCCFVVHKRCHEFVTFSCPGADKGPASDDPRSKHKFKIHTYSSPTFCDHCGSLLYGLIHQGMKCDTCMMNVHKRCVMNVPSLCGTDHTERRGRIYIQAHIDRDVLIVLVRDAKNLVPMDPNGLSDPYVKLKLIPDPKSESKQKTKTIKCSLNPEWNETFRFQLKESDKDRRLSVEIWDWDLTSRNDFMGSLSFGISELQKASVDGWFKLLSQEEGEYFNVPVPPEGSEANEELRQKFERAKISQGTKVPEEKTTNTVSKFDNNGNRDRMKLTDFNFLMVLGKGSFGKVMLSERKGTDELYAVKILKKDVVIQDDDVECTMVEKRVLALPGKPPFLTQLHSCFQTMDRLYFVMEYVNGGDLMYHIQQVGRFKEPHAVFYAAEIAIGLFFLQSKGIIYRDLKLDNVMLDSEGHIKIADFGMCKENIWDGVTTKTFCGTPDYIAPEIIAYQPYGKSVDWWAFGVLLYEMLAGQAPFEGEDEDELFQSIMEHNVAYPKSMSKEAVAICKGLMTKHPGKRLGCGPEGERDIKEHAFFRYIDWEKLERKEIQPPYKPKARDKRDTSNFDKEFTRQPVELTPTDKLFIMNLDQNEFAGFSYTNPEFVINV
Sequence of Tyrosine-protein kinase Lck (P06239 whole entry): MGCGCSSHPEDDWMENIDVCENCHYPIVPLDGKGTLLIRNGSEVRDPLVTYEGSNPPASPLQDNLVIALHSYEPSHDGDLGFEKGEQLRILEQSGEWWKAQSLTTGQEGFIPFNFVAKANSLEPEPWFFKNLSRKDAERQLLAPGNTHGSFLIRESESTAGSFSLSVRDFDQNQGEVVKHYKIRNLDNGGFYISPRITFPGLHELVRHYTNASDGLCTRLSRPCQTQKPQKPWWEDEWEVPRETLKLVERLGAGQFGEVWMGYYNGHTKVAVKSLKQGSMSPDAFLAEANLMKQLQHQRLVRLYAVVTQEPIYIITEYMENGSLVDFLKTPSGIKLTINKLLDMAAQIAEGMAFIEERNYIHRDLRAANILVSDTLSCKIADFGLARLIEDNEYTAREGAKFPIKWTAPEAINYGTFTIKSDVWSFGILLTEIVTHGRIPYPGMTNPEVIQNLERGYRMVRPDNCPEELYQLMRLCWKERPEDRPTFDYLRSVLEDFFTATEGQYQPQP
Sequence of Epidermal growth factor receptor (P00533 whole entry): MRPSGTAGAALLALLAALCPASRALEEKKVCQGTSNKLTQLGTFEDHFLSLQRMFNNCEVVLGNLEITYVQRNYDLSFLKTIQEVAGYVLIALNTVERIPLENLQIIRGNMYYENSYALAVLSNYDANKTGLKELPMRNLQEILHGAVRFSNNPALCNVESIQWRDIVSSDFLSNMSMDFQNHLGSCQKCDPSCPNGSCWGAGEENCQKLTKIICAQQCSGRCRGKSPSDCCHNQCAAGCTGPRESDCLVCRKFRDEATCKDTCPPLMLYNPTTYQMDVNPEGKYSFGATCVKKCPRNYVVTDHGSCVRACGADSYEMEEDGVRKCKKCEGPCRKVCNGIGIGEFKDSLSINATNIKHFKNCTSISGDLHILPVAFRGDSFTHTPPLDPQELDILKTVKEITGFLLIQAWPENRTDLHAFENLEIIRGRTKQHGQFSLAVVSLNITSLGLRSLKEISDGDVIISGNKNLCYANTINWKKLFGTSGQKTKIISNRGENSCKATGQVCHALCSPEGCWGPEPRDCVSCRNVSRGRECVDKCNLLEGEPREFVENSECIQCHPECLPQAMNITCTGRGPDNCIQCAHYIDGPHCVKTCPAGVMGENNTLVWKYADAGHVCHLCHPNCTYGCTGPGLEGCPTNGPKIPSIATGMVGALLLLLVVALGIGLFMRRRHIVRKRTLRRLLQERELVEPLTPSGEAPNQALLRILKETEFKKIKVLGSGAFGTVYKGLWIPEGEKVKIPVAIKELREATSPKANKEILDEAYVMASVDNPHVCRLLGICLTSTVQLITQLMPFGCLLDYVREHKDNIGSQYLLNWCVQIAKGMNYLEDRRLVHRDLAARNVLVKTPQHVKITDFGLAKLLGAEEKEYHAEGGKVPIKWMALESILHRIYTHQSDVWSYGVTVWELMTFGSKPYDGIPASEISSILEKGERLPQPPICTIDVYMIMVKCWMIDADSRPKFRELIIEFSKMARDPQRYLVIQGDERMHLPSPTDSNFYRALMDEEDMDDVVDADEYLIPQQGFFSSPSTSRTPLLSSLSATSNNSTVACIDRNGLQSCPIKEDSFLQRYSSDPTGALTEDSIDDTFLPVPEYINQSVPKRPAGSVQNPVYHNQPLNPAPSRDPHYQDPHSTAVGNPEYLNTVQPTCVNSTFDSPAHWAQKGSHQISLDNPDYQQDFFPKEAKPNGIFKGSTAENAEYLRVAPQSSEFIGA

SMILES: COc1cc(Nc2nn3c(N4CCC[C@@H]4CO)cc(C4CC4)nc3c2C(N)=O)cc(OC)c1
- inhibition at 30 µM [1]: 14.2%
- IC50 [2]: 9 nM

SMILES: COc1cc(Nc2nn3c(NC[C@@H](C)O)cc(C)nc3c2C(N)=O)cc(OC)c1
- IC50 [2]: 6690 nM

SMILES: COc1cc(Nc2nn3c(NC[C@H](C)N)cc(C)nc3c2C(N)=O)cc(OC)c1
- IC50 [2]: 2990 nM
- inhibition at 10 µM [3]: 99.1%

SMILES: COc1cc(Nc2nn3c(N[C@H](CO)C(C)C)cc(C)nc3c2C(N)=O)cc(OC)c1
- IC50 [2]: 1210 nM

SMILES: COc1cc(Nc2nn3c(NC[C@H](C)O)cc(C)nc3c2C(N)=O)cc(OC)c1
- IC50 [2]: 9200 nM

SMILES: COc1cc(Nc2nn3c(N[C@H](CO)Cc4ccccc4)cc(C4CC4)nc3c2C(N)=O)cc(OC)c1
- clearance [8]: 25 mL/min/kg
- inhibition at 30 µM [1]: 23.4%
- IC50 [2]: 3 nM
- IC50 [4]: 100 nM
- IC50 [9]: 2400 nM
- IC50 [10]: 7 nM
- half-life [11]: 22 min
- IC50 [12]: > 10000 nM
- Kp at 1 h [5]: 0.9
- Vd [13]: 0.53 L/kg
- IC50 [14]: > 10000 nM
- IC50 [15]: > 10000 nM
- concentration at 1 h [6]: 273 ng/mL
- concentration at 1 h [7]: 256 ng/g
- IC50 [16]: > 10000 nM
- AUC(0-inf) [17]: 1990 ng·h/mL

SMILES: COc1cc(Nc2nn3c(N[C@@H](CO)Cc4ccccc4)cc(C4CC4)nc3c2C(N)=O)cc(OC)c1
- IC50 [2]: 12 nM

SMILES: COc1cc(Nc2nn3c(N[C@H](CO)Cc4c[nH]c5ccccc45)cc(C4CC4)nc3c2C(N)=O)cc(OC)c1
- inhibition at 30 µM [1]: 5.4%
- IC50 [2]: 5 nM
- IC50 [4]: 500 nM
- Kp at 1 h [5]: 1.1
- concentration at 1 h [6]: 80 ng/mL
- concentration at 1 h [7]: 89 ng/g

SMILES: COc1cc(Nc2nn3c(NCC(C)(C)N)cc(C)nc3c2C(N)=O)cc(OC)c1
- IC50 [2]: 175 nM
- IC50 [4]: 900 nM
- inhibition at 10 µM [3]: 90.7%

SMILES: COc1cc(Nc2nn3c(N[C@H](CO)Cc4cccnc4)cc(C4CC4)nc3c2C(N)=O)cc(OC)c1
- IC50 [2]: 5 nM
- IC50 [4]: 100 nM
- concentration at 1 h [6]: 81 ng/mL

The next lines start with results.

- IC50 [2]: 8 nM
- IC50 [4]: 100 nM
- Kp at 1 h [5]: 0.4
- concentration at 1 h [6]: 346 ng/mL
- concentration at 1 h [7]: 126 ng/g
SMILES: COc1cc(Nc2nn3c(N[C@@H](CO)C(C)C)cc(C4CC4)nc3c2C(N)=O)cc(OC)c1

- IC50 [2]: 432 nM
SMILES: COc1cc(Nc2nn3c(N[C@@H](CO)C(C)C)cc(C)nc3c2C(N)=O)cc(OC)c1

- IC50 [2]: 41 nM
SMILES: COc1cc(Nc2nn3c(N[C@@H](CO)C(C)C)cc(C(C)C)nc3c2C(N)=O)cc(OC)c1
- inhibition at 30 µM [1]: 14.6%

- IC50 [2]: 25 nM
SMILES: COc1cc(Nc2nn3c(N4CCC[C@H]4CO)cc(C4CC4)nc3c2C(N)=O)cc(OC)c1

- IC50 [2]: 3480 nM
SMILES: COc1cc(Nc2nn3c(N[C@@H](C)CO)cc(C)nc3c2C(N)=O)cc(OC)c1

- IC50 [2]: 68 nM
SMILES: COc1cc(Nc2nn3c(N[C@@H](CO)C(C)C)cc(-c4ccccc4)nc3c2C(N)=O)cc(OC)c1
- inhibition at 30 µM [1]: 12.4%

- IC50 [2]: 408 nM
SMILES: COc1cc(Nc2nn3c(NC[C@@H](C)N)cc(C)nc3c2C(N)=O)cc(OC)c1
- inhibition at 10 µM [3]: 47.9%
